{"source": "patent US9302999B2", "about": "“Substituted triazoles as herbicides” (E. I. DU PONT DE NEMOURS AND COMPANY, priority 2012, dated 2016)", "type_in_all_cases": "in vivo", "key": {"[1]": {"system": "crabgrass, large (large crabgrass, Digitaria sanguinalis)", "assay": "Test F pre-/postemergence: crabgrass, large", "conditions": "Preemergence", "outline": "(§1)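 Seeds were sown in silt loam soil and sprayed preemergence with test chemical in a non-phytotoxic solvent mixture containing surfactant; postemergence treatments went onto plants 2 to 18 cm tall (1- to 4-leaf stage) grown in peat moss/vermiculite medium. After 14 to 21 days in a greenhouse, injury was rated visually against controls, 0 (no effect) to 100 (complete control).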"}, "[2]": {"system": "surinam grass (Brachiaria decumbens)", "assay": "Test F pre-/postemergence: surinam grass", "conditions": "Preemergence, scale 0 to 100, 0 no effect, 100 complete control", "outline": "as §1"}, "[3]": {"system": "arrowleaf sida (Sida rhombifolia)", "assay": "Test F pre-/postemergence: arrowleaf sida", "outline": "as §1"}}, "data": [{"smiles": "Cc1nn(-c2ccc(C(F)(F)F)c(F)c2)nc1Cc1ccnc(C(F)(F)F)c1", "note": "[Compound 162]", "values": [{"measurement": "Plant response rating, Crabgrass, Large", "setting": "[1]; 8 g ai/ha, scale 0 to 100, 0 no effect, 100 complete control", "result": 0}, {"measurement": "Plant response rating, Crabgrass, Large", "setting": "[1]; 16 g ai/ha, scale 0 to 100 (0 no effect, 100 complete control)", "result": 0}, {"measurement": "Plant response rating, Crabgrass, Large", "setting": "[1]; 31 g ai/ha, scale 0 to 100 (0 no effect, 100 complete control)", "result": 95}, {"measurement": "Plant response rating, Crabgrass, Large", "setting": "[1]; 62 g ai/ha, scale 0 to 100", "result": 100}, {"measurement": "Plant response rating, Surinam Grass", "setting": "[2]; 4 g ai/ha", "result": 0}, {"measurement": "Plant response rating, Surinam Grass", "setting": "[2]; 8 g ai/ha", "result": 0}, {"measurement": "Plant response rating, Arrowleaf Sida", "setting": "[3]; Postemergence, 4 g ai/ha, scale 0 to 100", "result": 10}, {"measurement": "Plant response rating, Arrowleaf Sida", "setting": "[3]; Postemergence, 8 g ai/ha, scale 0 to 100", "result": 25}, {"measurement": "Plant response rating, Arrowleaf Sida", "setting": "[3]; Postemergence, 16 g ai/ha, scale 0 to 100", "result": 30}, {"measurement": "Plant response rating, Arrowleaf Sida", "setting": "[3]; Postemergence, 31 g ai/ha, scale 0 to 100", "result": 35}, {"measurement": "Plant response rating, Arrowleaf Sida", "setting": "[3]; Postemergence, 62 g ai/ha, scale 0 to 100", "result": 60}, {"measurement": "Plant response rating, Arrowleaf Sida", "setting": "[3]; Preemergence, 4 g ai/ha, scale 0 to 100, 0 no effect, 100 complete control", "result": 0}, {"measurement": "Plant response rating, Arrowleaf Sida", "setting": "[3]; Preemergence, 8 g ai/ha, scale 0 to 100, 0 no effect, 100 complete control", "result": 0}, {"measurement": "Plant response rating, Arrowleaf Sida", "setting": "[3]; Preemergence, 16 g ai/ha, scale 0 to 100 (0 no effect, 100 complete control)", "result": 0}, {"measurement": "Plant response rating, Arrowleaf Sida", "setting": "[3]; Preemergence, 31 g ai/ha, scale 0 to 100 (0 no effect, 100 complete control)", "result": 0}, {"measurement": "Plant response rating, Arrowleaf Sida", "setting": "[3]; Preemergence, 62 g ai/ha, scale 0 to 100", "result": 0}]}]}
